We go through 15 compounds from patent US6133263A, “Endothelin antagonists with ether-linked groups” (Warner-Lambert Company, priority 1998, dated 2000).

Like-named read-outs stand apart in the source and are kept apart here. Where a SMILES comes first, the peptide text is derived from it. [ ]: non-standard residue; d: D form.

One assay concerns ischemic brain injury. The following applies: rats, oral; cited from earlier work.
Assay [1] has as its system pulmonary vascular resistance and pulmonary arterial pressure. The following applies: rat hypoxia model of hypertension; cited from earlier work.
A further assay concerns acute renal ischemia. Particulars: models of acute renal ischemia; cited from earlier work.
The test system of assay [2] is ET-1-induced changes in gastric mucosal hemodynamics and gastric ulceration. Particulars: in vivo; cited from earlier work.
The subject of a further assay is chronic heart failure. The following applies: patients with chronic heart failure; cited from earlier work.
For assay [3], the system named is cerebral vasospasm. The following applies: rat; cited from earlier work.
The subject of the next assay is neointima formation. Particulars: rats, carotid artery balloon angioplasty; cited from earlier work.
The target of the next assay is T1, human ETB R (Homo sapiens, UniProt P24530).
T1 construct: expressed in transfected cells; host or cells: CHO-K1 cells, membranes
T1 sequence (P24530 27-442): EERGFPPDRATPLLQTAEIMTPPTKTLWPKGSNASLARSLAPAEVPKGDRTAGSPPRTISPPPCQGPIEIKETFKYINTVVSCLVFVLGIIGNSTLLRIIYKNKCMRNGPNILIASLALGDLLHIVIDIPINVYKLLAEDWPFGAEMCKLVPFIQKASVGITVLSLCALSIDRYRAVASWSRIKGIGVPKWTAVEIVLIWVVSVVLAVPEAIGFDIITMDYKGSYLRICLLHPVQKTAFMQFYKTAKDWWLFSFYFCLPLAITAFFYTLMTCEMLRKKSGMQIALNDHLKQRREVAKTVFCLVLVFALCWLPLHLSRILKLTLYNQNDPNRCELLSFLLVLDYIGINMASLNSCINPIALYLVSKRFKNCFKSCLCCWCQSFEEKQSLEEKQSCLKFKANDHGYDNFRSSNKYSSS
Briefly: [125I]-ET-1 radioligand binding assay, CHO-K1 cells expressing recombinant human ETB R (HERBA-B). The following applies: CHO cell membranes, [125I]-ET-1 40 pM, 2 hours at 37° C. The text has this: The compounds of Formula I are valuable as antagonists of endothelin.
The following radioligand binding assays were used (Reynolds E. E.; Keiser J. A.; Haleen S. J.; Walker D. M.; Davis L. S.; Olszewski B.; Taylor D. G.; Hwang O.; Welch K. M.; Flynn M. A.; Thompson D. M.; et. al., J. Pharmacol. Exp. Ther., 1995;273:1410-1417).
The following cultured cells were used in binding experiments: CHO-KL cells expressing recombinant human ETB R (HERBA B), or Ltk- cells expressing human ETA R (HERBA A). […] Membranes were prepared from cultured cells by lysing cells in cold lysis buffer (5 mM HEPES, 2 mM EDTA, pH 7.4) and homogenizing with a Dounce "A" homogenizer. All of the homogenates were centrifuged at 30,000×g for 20 minutes at 4° C. Membrane pellets were resuspended in cold buffer containing 20 mM Tris, […], 200 μM Pefablock, 10 μM phosphoramidon, 10 μM leupeptin, and 1 μM pepstatin (pH 7.4) and frozen at -80° C. until use. Radioligand and competing ligands were prepared in binding buffer containing 20 mM Tris, 2 mM EDTA, and 0.1% BSA.
Competition binding assays were initiated by combining membranes, [^125 ]-ET-1 (40 pM) and competing ligand in a final volume of 250 μL and incubating for 2 hours at 37° C. The assay was terminated by filtration over Whatman GF/B filters that were presoaked with 50 mM Tris, pH 7.4, containing 0.2% BSA and 100 μM bacitracin. […] was defined as total binding minus nonspecific binding. Specific binding was analyzed by nonlinear least squared curve fitting (InPlot, GraphPad Software, San Diego, Calif.), and the estimated IC50 value was used to calculate Ki according to the method of Cheng and Prusoff (1973).

For another assay, the target named is T2, human ETA R (Homo sapiens, UniProt P25101).
T2 sequence (P25101 21-427): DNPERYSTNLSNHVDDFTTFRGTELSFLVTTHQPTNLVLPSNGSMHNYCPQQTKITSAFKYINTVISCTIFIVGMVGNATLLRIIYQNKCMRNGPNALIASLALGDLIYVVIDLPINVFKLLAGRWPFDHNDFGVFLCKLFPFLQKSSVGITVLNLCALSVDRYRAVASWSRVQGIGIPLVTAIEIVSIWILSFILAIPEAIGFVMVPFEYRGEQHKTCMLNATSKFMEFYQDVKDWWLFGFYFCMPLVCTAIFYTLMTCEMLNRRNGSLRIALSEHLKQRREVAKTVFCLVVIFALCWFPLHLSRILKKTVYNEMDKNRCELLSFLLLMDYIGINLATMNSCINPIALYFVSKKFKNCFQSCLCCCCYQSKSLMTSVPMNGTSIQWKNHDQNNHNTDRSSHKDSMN
Kind of assay: [125I]-ET-1 radioligand binding assay, Ltk- cells expressing human ETA R (HERBA-A). The following applies: Ltk- cell membranes, [125I]-ET-1 40 pM, 2 hours at 37° C.

The subject of assay [4] is endothelin-stimulated arachidonic acid release in rabbit renal artery vascular smooth muscle cells. Kind of assay: inhibition of ET-1 stimulated arachidonic acid release (AAR) in cultured rabbit renal artery vascular smooth muscle cells. The class given is cell-based. Particulars: Oryctolagus cuniculus, 0.5 h, read-out: AAR-A.
The subject of assay [5] is ischemic damage in the cerebral hemisphere. Particulars: cats, middle cerebral artery occlusion, IV; cited from earlier work.
In the next assay the test system is prostate smooth muscle. The following applies: in vivo; cited from earlier work.
For assay [6] the following is noted: oral; cited from earlier work.
In assay [7] the test system is cerebral vasospasm. The following applies: in vivo; cited from earlier work.
The subject of assay [8] is ET-1 induced bronchoconstriction and tracheal smooth muscle contraction. Particulars: allergic sheep; cited from earlier work.
Assay [9] concerns vasoconstriction of the basilar artery. The following applies: after 7 days, canine two-hemorrhage model of SAH; cited from earlier work.

Regarding `CCCOc1ccc2c(c1)C(c1ccc(OC)cc1OCCO)C(C(=O)O)C2c1ccc2c(c1)OCO2` (centres unmarked) [SB 217242], in the assay with ischemic brain injury, the ischemic brain injury entry is “Reduction of ischemic brain injury”.

`COc1ccccc1Oc1c(NS(=O)(=O)c2ccc(C(C)(C)C)cc2)nc(-c2ncccn2)nc1OCCO` [Bosentan]: in [1], the “protection / increase in pulmonary vascular resistance and pulmonary arterial pressure” value (“protection / increase” for short) is “provide protection in a rat hypoxia model of hypertension”. Also, the “efficacy in acute renal ischemia” value in the assay with acute renal ischemia is “effective in models of acute renal ischemia”. Further, the “ET-1-induced changes in gastric mucosal hemodynamics and ET-1-induced gastric ulceration” value in assay [2] is given as “found to be an antagonist toward the ET-1-induced changes in gastric mucosal hemodynamics as well as on ET-1-induced gastric ulceration”. The cardiac performance result with chronic heart failure is “found to improve cardiac performance”.

Turning to `COc1cccc(Oc2c(NS(=O)(=O)c3ccc(C(C)(C)C)cc3)ncnc2OCCO)c1` [Ro 46-2005], the “early cerebral vasospasm following SAH” value with cerebral vasospasm [3] is listed as “shown to prevent early cerebral vasospasm”. For `CCCOc1ccc2c(c1)C(c1ccc(OC)cc1OCC(=O)O)C(C(=O)O)C2c1ccc2c(c1)OCO2` (single isomer, unassigned) [SB 209670], the neointima formation result with neointima formation is on record as “found to ameliorate neointima formation”. Consider `COc1ccc(C2(OCCCS(=O)(=O)O)OC(=O)C(c3ccc4c(c3)OCO4)=C2Cc2cc(OC)c(OC)c(OC)c2)cc1` (centres unmarked), for which the IC50 at human ETB R was determined as 1900 nM; on human ETA R, 0.15 nM; in [4], 0.3 nM. On to `COc1ccc(C2(O)OC(=O)C(c3ccc4c(c3)OCO4)=C2Cc2cc(OC)c(OC)c(OC)c2)cc1` (centres unmarked) [PD 156707], for which the “protection / increase” value in assay [1] is reported as “provide protection in a rat hypoxia model of hypertension”. In addition, in assay [5], the “volume of ischemic damage in the cerebral hemisphere” value is on record as “significantly reduced”. As to `COc1ccc(C2(OCCN(C)C)OC(=O)C(c3ccc4c(c3)OCO4)=C2Cc2cc(OC)c(OC)c(OC)c2)cc1` (centres unmarked) [Example 4, 3-Benzo[1,3]dioxol-5-yl-5-(2-dimethylamino-ethoxy)-5-(4-methoxy-phenyl)-4-(3,4,5-trimethoxy-benzyl)-5H-furan-2-one], the IC50 at human ETB R stood at 1080 nM; at human ETA R, 0.3 nM. `COc1ccc(C2(OCCCN(C)C)OC(=O)C(c3ccc4c(c3)OCO4)=C2Cc2cc(OC)c(OC)c(OC)c2)cc1` (centres unmarked) [Example 3, 3-Benzo[1,3]dioxol-5-yl-5-(3-dimethylamino-propoxy)-5-(4-methoxy-phenyl)-4-(3,4,5-trimethoxy-benzyl)-5H-furan-2-one]: the IC50 was > 2500 nM at human ETB R and 12 nM at human ETA R. Regarding `COc1ccc(C2(O)OC(=O)C(c3ccc4c(c3)OCO4)=C2Cc2ccccc2)cc1` (centres unmarked) [PD 155080], the “prostate smooth muscle function” value in the assay on prostate smooth muscle is listed as “found to mediate prostate smooth muscle function in vivo”. For the compound `COc1ccc(C2(OCCN(C)C)OC(=O)C(c3cc(OC)cc(OC)c3)=C2Cc2cc(OC)c(OC)c(OC)c2)cc1` (centres unmarked) [Example 6], the IC50 was determined as 2200 nM at human ETB R and 2.6 nM at human ETA R. With `Cc1noc(NS(=O)(=O)c2cccc3c(N(C)C)cccc23)c1C` [5-(Dimethylamino)-N-(3,4-dimethyl-5-isoxazolyl)-1-naphthalenesulfonamide], in assay [6], the antihypertensive effect result is reported as “demonstrated an oral antihypertensive effect”. `CC(C)C[C@@H]1NC(=O)[C@@H](C(C)C)NC(=O)[C@@H]2CCCN2C(=O)[C@@H](CC(=O)O)NC(=O)[C@@H](Cc2c[nH]c3ccccc23)NC1=O` [BQ-123] (cyclo(L[dW][dD]P[dV])): in assay [1], the “protection / increase” value is recorded as “provide protection in a rat hypoxia model of hypertension”. In addition, in the assay on cerebral vasospasm [7], the “early cerebral vasospasm following SAH” value is given as “shown to prevent early cerebral vasospasm”. The “ET-1 induced bronchoconstriction and tracheal smooth muscle contraction” value in assay [8] was “shown to block ET-1 induced bronchoconstriction and tracheal smooth muscle contraction”. In the case of `COc1ccc(C2(OCCN3CCOCC3)OC(=O)C(c3ccc4c(c3)OCO4)=C2Cc2cc(OC)c(OC)c(OC)c2)cc1` (centres unmarked) [Example 1], the IC50 on human ETB R worked out at 12000 nM; on human ETA R, 2.8 nM; in assay [4] (ET-1 0.3 nM, test compound 1 nM to 1 μM, 30 minutes) it was 10 nM. On to `COc1ccc(C2(OCCN3CCOCC3)OC(=O)C(c3cc(OC)c4c(c3)OCO4)=C2Cc2cc(OC)c(OC)c(OC)c2)cc1` (centres unmarked) [Example 5, 3-(7-Methoxy-benzo[1,3]dioxol-5-yl)-5-(4-methoxy-phenyl)-5-(2-morpholin-4-yl-ethoxy)-4-(3,4,5-trimethoxy-benzyl)-5H-furan-2-one], for which the IC50 at human ETB R came out at 700 nM; at human ETA R, 1.7 nM.

With FR 139317, the “vasoconstriction of the basilar artery” value in assay [9] is “significantly inhibited the vasoconstriction of the basilar artery”.
